For 27 compounds, IC50 results are on record in patent US10035790B2, “RORγ modulators” (BRISTOL-MYERS SQUIBB COMPANY, priority 2012, dated 2018).

Molecules are shown by their SMILES. pIC50: −log10 of the molar value.

One assay addresses T1, ligand binding domain of human RORγ (A262-S507) (Homo sapiens, UniProt P51449).
T1 construct: made in house; host or cells: E. coli
T1 sequence (P51449 262-507): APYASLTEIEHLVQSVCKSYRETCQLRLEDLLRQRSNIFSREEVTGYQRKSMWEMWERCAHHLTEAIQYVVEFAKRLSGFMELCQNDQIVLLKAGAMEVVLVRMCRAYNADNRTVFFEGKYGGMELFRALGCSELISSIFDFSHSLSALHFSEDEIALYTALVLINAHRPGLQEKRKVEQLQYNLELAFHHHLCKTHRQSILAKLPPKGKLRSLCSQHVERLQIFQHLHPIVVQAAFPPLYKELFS
Nature of the assay: General RORγ SPA binding assay (competition with [3H]25-hydroxycholesterol). The following applies: IC50, RORγ SPA binding assay, inhibition of [3H]25-hydroxycholesterol binding. The method in brief:
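N-terminally His-tagged protein was expressed in E. coli and nickel-purified. Then 50 nM protein was preincubated with compound for 15 min at room temperature in PBS with 0.5% fatty acid free BSA, followed by radioligand for 15 min and copper His-tag SPA beads for 30 min. IC50 came from percent inhibition of binding.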
`CC(O)(COc1cccc(C(F)(F)F)n1)c1cnc(N)nc1C1CCN(C(=O)Oc2c(F)cccc2F)CC1` (stereo not drawn) [Compound D48, 2,6-Difluorophenyl 4-[2-amino-5-(1-hydroxy-1-methyl-2-{[6-(trifluoromethyl)pyridin-2-yl]oxy}ethyl)pyrimidin-4-yl]piperidine-1-carboxylate] had a pIC50 of 7.52.

On to `Nc1ncc(C(=O)COc2ccnc(C(F)(F)F)n2)c(C2CCN(C(=O)Oc3c(F)cccc3F)CC2)n1` [Compound M3, 2,6-Difluorophenyl 4-[2-amino-5-({[2-(trifluoromethyl)pyrimidin-4-yl]oxy}acetyl)pyrimidin-4-yl]piperidine-1-carboxylate], for which the pIC50 is 7.72.

Still in this assay, the particulars now being: RORγ SPA binding assay, inhibition of [3H]25-hydroxycholesterol binding; read-out: IC50.
As for `Cc1cc(C)cc(CNC(=O)c2cnc(C)nc2C2CCN(C(=O)C3(c4ccccc4)CC3)CC2)c1` [Compound A32, N-(3,5-dimethylbenzyl)-2-methyl-4-(1-(1-phenylcyclopropanecarbonyl)piperidin-4-yl)pyrimidine-5-carboxamide], the pIC50 was 5.77.

On to `Cc1cc(C)cc(CNC(=O)c2cnc(C3CC3)nc2C2CCN(C(=O)Cc3c(F)cccc3F)CC2)c1` [Compound A43, 2-cyclopropyl-4-(1-(2-(2,6-difluorophenyl)acetyl)piperidin-4-yl)-N-(3,5-dimethylbenzyl)pyrimidine-5-carboxamide], for which the pIC50 is 8.27.

As to `Cc1ncc(C(=O)NCc2cc(Cl)cc(Cl)c2)c(C2CCN(C(=O)Cc3c(F)cccc3F)CC2)n1` [Compound A51, N-(3,5-dichlorobenzyl)-4-(1-(2-(2,6-difluorophonyl)acetyl)piperidin-4-yl)-2-methylpyrimidine-5-carboxamide], the pIC50 is 8.14.

For the compound `Cc1nc(C)c(-c2nnc(-c3ccnc(C(F)(F)F)n3)o2)c(C2CCN(C(=O)Nc3ccccc3OC(F)(F)F)CC2)n1` [Compound C32, 4-(2,6-dimethyl-5-{5-[2-(trifluoromethyl)pyrimidin-4-yl]-1,3,4-oxadiazol-2-yl}pyrimidin-4-yl)-N-{2-[(trifluoromethyl)oxy]phenyl}piperidine-1-carboxamide], the pIC50 was 6.80.

For the compound `O=C(Cc1c(F)cccc1F)N1CCC(c2ncncc2C(=S)NCc2ccc(Cl)c(Cl)c2)CC1` [Compound L1, N-(3,4-Dichlorobenzyl)-4-(1-(2-(2,6-difluorophenyl)acetyl)piperidin-4-yl)pyrimidine-5-carbothioamide], the pIC50 was 7.09.

As for `Cc1nc(C)c(-c2nnc(-c3ccnc(C(F)(F)F)n3)o2)c(C2CCN(C(=O)Cc3ncccc3Cl)CC2)n1` [Compound C42, 4-{1-[(3-Chloropyridin-2-yl)acetyl]piperidin-4-yl}-2,6-dimethyl-5-{5-[2-(trifluoromethyl)pyrimidin-4-yl]-1,3,4-oxadiazol-2-yl}pyrimidine], the pIC50 is 6.62.

`CC(O)(COc1ccnc(C(F)(F)F)n1)c1cnc(OCC(F)F)nc1C1CCN(C(=O)Nc2c(F)cccc2F)CC1` (stereo not drawn) [Compound D41, 4-{2-[(2,2-Difluoroethyl)oxy]-5-(1-hydroxy-1-methyl-2-{[2-(trifluoromethyl)pyrimidin-4-yl]oxy}ethyl)pyrimidin-4-yl}-N-(2,6-difluorophenyl)piperidine-1-carboxamide]: the pIC50 was 7.00.

For `Cc1cc(CNC(=O)c2cnc(C)nc2C2CCN(C(=O)Cc3c(F)cccc3F)CC2)ccn1` [Compound A70, 4-(1-(2-(2,6-difluorophenyl)acetyl)piperidin-4-yl)-2-methyl-N-((2-methylpyridin-4-yl)methyl)pyrimidine-5-carboxamide], the pIC50 is 6.67.

In the case of `COC(=O)C(C)(CNc1ccnc(C(F)(F)F)n1)c1cnc(C)nc1C1CCN(C(=O)Cc2c(F)cccc2F)CC1` (stereo not drawn) [Compound F4, Methyl 2-(4-(1-(2-(2,6-difluorophenyl)acetyl)piperidin-4-yl)-2-methylpyrimidin-5-yl)-2-methyl-3-(2-(trifluoromethyl)pyrimidin-4-ylamino)propanoate], the pIC50 was 6.71.

In the case of `C/C(=N\Oc1ccnc(C(F)(F)F)c1)c1cnc(N)nc1C1CCN(C(=O)Nc2c(F)cccc2F)CC1` [Compound B53, 4-{2-amino-5-[(1E)-N-{[2-(trifluoromethyl)pyridin-4-yl]oxy}ethanimidoyl]pyrimidin-4-yl}-N-(2,6-difluorophenyl)piperidine-1-carboxamide], the pIC50 was 7.45.

Regarding `Cc1nc(C)c(C(=O)NCc2cccc(Cl)c2)c(C2CCN(C(=O)Cc3c(F)cccc3F)CC2)n1` [Compound A81], the pIC50 is 8.28.

Turning to `Cc1nc(C)c(-c2nnc(-c3ccnc(C(F)(F)F)n3)s2)c(C2CCN(C(=S)Cc3c(F)cccc3F)CC2)n1` [Compound C39, 4-{1-[2-(2,6-Difluorophenyl)ethanethioyl]piperidin-4-yl}-2,6-dimethyl-5-{5-[2-(trifluoromethyl)pyrimidin-4-yl]-1,3,4-thiadiazol-2-yl}pyrimidine], the pIC50 is 5.34.

`Cc1nc(C)c(-c2nc(-c3cccc(C(F)(F)F)c3)no2)c(C2CCN(C(=O)Cc3c(F)cccc3F)CC2)n1` [Compound C1, 4-{1-[(2,6-Difluorophenyl)acetyl]piperidin-4-yl}-2,6-dimethyl-5-{3-[3-(trifluoromethyl)phenyl]-1,2,4-oxadiazol-5-yl}pyrimidine]: the pIC50 is 6.94.

In the case of `Cc1ncc(C(=O)NCc2ccnc(C(F)(F)F)c2)c(C2CCN(C(=O)Cc3c(F)cccc3F)CC2)n1` [Compound A47, 4-(1-(2-(2,6-difluorophenyl)acetyl)piperidin-4-yl)-2-methyl-N-((2-(triflnoromethyl)pyridin-4-yl)methyl)pyrimidine-5-carboxamide], the pIC50 is 8.20.

As for `Cc1ncc(C(C)(F)CNc2ccnc(C(F)(F)F)n2)c(C2CCN(C(=O)Nc3c(F)cccc3F)CC2)n1` (stereo not drawn) [Compound E15, N-(2,6-Difluorophenyl)-4-[5-(1-fluoro-1-methyl-2-{[2-(trifluoromethyl)pyrimidin-4-yl]amino}ethyl)-2-methylpyrimidin-4-yl]piperidine-1-carboxamide], the pIC50 is 7.25.

For the compound `Cc1cc(C)cc(CNC(=O)c2cnc(C)nc2C2CCN(CC(=O)c3ccccc3Cl)CC2)c1` [Compound A115, 4-(1-(2-(2-Chlorophenyl)-2-oxoethyl)piperidin-4-yl)-N-(3,5-dimethylbenzyl)-2-methylpyrimidine-5-carboxamide], the pIC50 was 6.47.

In the case of `Nc1ncc(C(O)COc2ccnc(C(F)(F)F)n2)c(C2CCN(C(=O)Nc3c(F)cccc3F)CC2)n1` (stereo not drawn) [Compound N2, 4-[2-Amino-5-(1-hydroxy-2-{[2-(trifluoromethyl)pyrimidin-4-yl]oxy}ethyl)pyrimidin-4-yl]-N-(2,6-difluorophenyl)piperidine-1-carboxamide], the pIC50 is 7.71.

For the compound `Cc1cc(CNC(=O)c2cnc(C)nc2C2CCN(C(=O)Cc3c(F)cccc3F)CC2)cc(C)n1` [Compound A73, 4-(1-(2-(2,6-difluorophenyl)acetyl)piperidin-4-yl)-N-((2,6-dimethylpyridin-4-yl)methyl)-2-methylpyrimidine-5-carboxamide], the negative logarithm of the IC50 (pIC50) is 6.37.

For `C/C(=N\Oc1ccnc(C(F)(F)F)c1)c1cnc(C)nc1C1CCN(C(=O)Nc2c(F)cccc2F)CC1` [Compound B37, N-(2,6-Difluorophenyl)-4-{2-methyl-5-[(1E)-N-{[2-(trifluoromethyl)pyridin-4-yl]oxy}ethanimidoyl]pyrimidin-4-yl}piperidine-1-carboxamide], the pIC50 is 7.17.

As to `Cc1cc(C)cc(CNC(=O)c2cnc(C)nc2C2CCN(C(=O)C(F)(F)c3ccccc3F)CC2)c1` [Compound A118, 4-{1-[Difluoro(2-fluorophenyl)acetyl]piperidin-4-yl}-N-[(3,5-dimethylphenyl)methyl]-2-methylpyrimidine-5-carboxamide], the pIC50 is 7.29.

As for `CCNC(=O)c1cc(CNC(=O)c2cnc(C)nc2C2CCN(C(=O)Cc3c(F)cccc3F)CC2)ccn1` [Compound A77, 4-(1-(2-(2,6-difluorophenyl)acetyl)piperidin-4-yl)-N-((2-(ethylcarbamoyl)pyridin-4-yl)methyl)-2-methylpyrimidine-5-carboxamide], the pIC50 was 5.87.

Regarding `C/C(=N\Oc1cccc(C(F)(F)F)c1)c1cnc(C)nc1C1CCN(C(=O)Nc2c(F)cccc2F)C(C)C1` (stereo not drawn) [Compound B47, N-(2,6-Difluorophenyl)-2-methyl-4-{2-methyl-5-[(1E)-N-{[3-(trifluoromethyl)phenyl]oxy}ethanimidoyl]pyrimidin-4-yl}piperidine-1-carboxamide], the pIC50 is 7.12.

Regarding `Cc1nc(C2CCN(C(=O)Cc3c(F)cccc3F)CC2)c(/C=N/Oc2cccc(C(F)(F)F)c2)c(=O)[nH]1` [Compound I6, (E)-4-(1-(2-(2,6-Difluorophenyl)acetyl)piperidin-4-yl)-2-methyl-6-oxo-1,6-dihydropyrimidine-5-carbaldehyde O-3-(trifluoromethyl)phenyl oxime], the pIC50 was 7.22.

Turning to `Cc1nc(C)c(C=NOc2cccc(C(F)(F)F)c2)c(C2CCN(C(=O)Cc3c(F)cccc3F)CC2)n1` [Compound B31, 4-{1-[(2,6-Difluorophenyl)acetyl]piperidin-4-yl}-2,6-dimethylpyrimidine-5-carbaldehyde O-[3-(trifluoromethyl)phenyl]oxime], the pIC50 is 8.47.

`Cc1nc(N)nc(C2CCN(C(=O)Oc3ccc(F)cc3)CC2)c1-c1nnc(-c2ccnc(C(F)(F)F)n2)o1` [Compound C53, 4-Fluorophenyl 4-(2-amino-6-methyl-5-{5-[2-(trifluoromethyl)pyrimidin-4-yl]-1,3,4-oxadiazol-2-yl}pyrimidin-4-yl)piperidine-1-carboxylate]: the pIC50 was 7.43.

By pIC50 is commonly meant −log10 of the IC50, conventionally taken in molar units.
